Test results reported in patent publication US20240360134A1, “PYRAZOLOPYRIMIDINES AND THEIR USES AS PDGFR INHIBITORS” (priority 2021, published 2024).
Like-named read-outs stand apart in the source and are kept apart here.

What was measured:
[1] = target: PDGFRβ (Rattus norvegicus (Rat), UniProt Q05030); assay: PDGFRβ Cellular Assay (PDGFRb P-Y751 HTRF, PDGF-BB stimulated A10 cells); type: cell-based
Protocol: Cell Culture and Preparation: Cells are cultured according to ATCC procedure (5) with the addition of the antibiotic penicillin-streptomycin. If working from frozen, cells should be thawed according to ATCC procedure. Depending on the cell density of frozen vial, cells will need time to recover from thaw. An 80% confluent T75 flask should be enough for one 384 well plate.
Stock Solutions: Rat PDGFBB. A 100 ug/mL stock is prepared by reconstituting 50 ug in 500 μL of 4 mM HCl and 0.1% BSA. It can be stored for a month at 4° C., or aliquoted out and frozen in the −20/−80° C. to avoid multiple free-thaw cycles.
1× Cisbio cell lysis buffer. The cell lysis buffer is diluted 4-fold with molecular grade water. The blocking agent is then diluted 25-fold in the diluted lysis buffer.
Antibody solutions. Equal amounts d2 and cryptate antibody are diluted 20-fold in detection buffer.
Rat PDGFBB. A working stock of 100 ng/mL is created from the stock solution in 10% FBS culture media.
Step 1: Plating Cells: Media from the A10 cell flask is aspirated. The cells are rinsed with PBS and then trypsinized to disperse the cell layer. The cells are then pelleted are resuspended to 1.25e5 cells/mL. […] Plates are covered and placed in the incubator (37° C. 5% CO2) overnight to allow cells to adhere.
Step 2: Compound Dispense: Approximately 18 hours after plating, dispense 40 nL compound onto cells using Echo. […] The plate is returned to the incubator for 3 hours.
After 10 minutes the media is removed by flicking the plate.
Step 4: Cell lysis and antibody addition: 20 uL lysis buffer per well is added to the plate via Tempest. 5 uL antibody solution is added per well via the Tempest. The plate is placed on the shaker at 230 rpm for 1 hour at room temperature.
Step 5: Detection: The plate is read using the HTRF module on the BMG Pherastar. Data is analyzed using Genedata Screener.
IC50 values are determined from a 4-parameter fit, using the following equation: Y=Bottom+(Top−Bottom)/(1+10((Log IC50−X)*Hill slope)), where X=log10 of the compound concentration; top can be defined by PC; bottom defined by NC.

[2] = target: VEGFR2, unphosphorylated (Homo sapiens (Human), UniProt P35968); assay: VEGFR ADP GLO assay; type: biochemical; conditions: 5 nM VEGFR2, 1.2 mM ATP, 1 mg/mL Srctide, 180 min
Sequence of VEGFR2, unphosphorylated (P35968 whole entry, looked up): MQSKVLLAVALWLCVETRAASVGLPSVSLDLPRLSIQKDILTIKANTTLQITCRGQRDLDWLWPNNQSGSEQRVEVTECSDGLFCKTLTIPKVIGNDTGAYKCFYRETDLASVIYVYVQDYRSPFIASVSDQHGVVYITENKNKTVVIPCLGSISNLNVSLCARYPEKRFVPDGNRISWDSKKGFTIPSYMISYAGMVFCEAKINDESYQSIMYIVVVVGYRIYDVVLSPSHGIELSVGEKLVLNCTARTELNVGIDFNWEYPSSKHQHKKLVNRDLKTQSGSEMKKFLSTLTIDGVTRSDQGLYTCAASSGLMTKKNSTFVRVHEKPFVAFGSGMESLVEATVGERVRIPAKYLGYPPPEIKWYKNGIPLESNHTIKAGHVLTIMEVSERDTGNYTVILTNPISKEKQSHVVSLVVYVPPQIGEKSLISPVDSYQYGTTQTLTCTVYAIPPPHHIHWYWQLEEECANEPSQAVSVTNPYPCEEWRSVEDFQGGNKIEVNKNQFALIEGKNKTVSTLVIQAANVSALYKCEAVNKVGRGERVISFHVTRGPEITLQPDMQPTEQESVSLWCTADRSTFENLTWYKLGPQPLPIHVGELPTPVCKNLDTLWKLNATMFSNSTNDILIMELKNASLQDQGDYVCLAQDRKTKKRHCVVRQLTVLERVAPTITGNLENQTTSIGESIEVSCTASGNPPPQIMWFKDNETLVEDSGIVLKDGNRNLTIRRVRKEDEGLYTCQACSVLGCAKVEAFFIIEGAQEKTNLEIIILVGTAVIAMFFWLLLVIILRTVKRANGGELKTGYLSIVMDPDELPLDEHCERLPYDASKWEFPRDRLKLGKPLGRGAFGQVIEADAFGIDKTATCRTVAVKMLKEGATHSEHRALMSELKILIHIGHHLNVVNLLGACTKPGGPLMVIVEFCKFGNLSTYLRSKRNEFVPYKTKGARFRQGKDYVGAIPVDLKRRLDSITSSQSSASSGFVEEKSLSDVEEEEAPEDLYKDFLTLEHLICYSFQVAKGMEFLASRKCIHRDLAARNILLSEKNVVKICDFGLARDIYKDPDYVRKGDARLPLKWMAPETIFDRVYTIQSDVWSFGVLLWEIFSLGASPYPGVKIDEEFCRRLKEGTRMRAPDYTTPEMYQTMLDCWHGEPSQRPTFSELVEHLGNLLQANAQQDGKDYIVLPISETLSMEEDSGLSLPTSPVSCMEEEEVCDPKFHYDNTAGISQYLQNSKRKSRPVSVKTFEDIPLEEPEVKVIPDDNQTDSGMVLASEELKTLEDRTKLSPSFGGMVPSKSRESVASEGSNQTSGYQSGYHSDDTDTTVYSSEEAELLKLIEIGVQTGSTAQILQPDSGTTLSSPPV
Protocol: Assay buffer stock contains 50 mM HEPES pH7.5, 10 mM MgCl2, 0.01% Brij-35, and 1 mM EGTA.
Unphosphorylated VEGFR2. 52.6 μM in 50 mM Tris-HCl, pH 8.0, 50 mM NaCl, 5% Glycerol, 0.5 mM TCEP. Store at −80° C. in aliquots.
10 mg/mL srctide solution, prepared in Assay buffer (Assay buffer stock with 2 mM DTT, 0.1% Pluronic F-127, and 0.1 mg/mL ovalbumin). Sonicate 10 mg/ml Srctide solution for 10 minutes and then vacuum filter.
Assay buffer. Add DTT to 2 mM, Pluronic F-127 to 0.1% and ovalbumin to 0.1 mg/mL to Assay buffer stock.
2× kinase solution. Make a working solution of 10 nM unphosphorylated VEGFR2 in Assay buffer. Vacuum filter 2× kinase solution prior to running assay. Keep on ice until use.
2× substrate/ATP solution. Make a working solution of 2 mg/mL srctide and 2.4 mM ATP in Assay buffer. Keep on ice until use.
Step 1. Dispensing inhibitors/controls: Using Echo, dispense 10 nL/well compound serial dilutions in DMSO to columns 1-22 (in 384-well plates) or columns 1-44 (in 1536-well plates). Dilution series=11 pt, 3-fold dilutions. The top compound concentration in the source plate is 4 mM. The top compound concentration in the assay plate is 10 uM. Using Echo, dispense 10 nl/well DMSO to column 23 (in 384-well plates) or columns 45-47 (in 1536-well plates). These wells will serve as negative control wells Using Echo, dispense 10 nl/well 400 uM TAK-593 in DMSO to column 24 (in 384-well plates) or column 48 (in 1536-well plates). The final concentration of TAK-593 in the assay should be 1 uM. These wells will serve as positive control wells.
Step 2. Pre-incubation of inhibitors with kinase: Add 2 μL/well 2× kinase solution. Centrifuge at 1000 rpm for 1 min. Incubate at room temperature for 30 min.
Step 3. Kinase cascade reaction: Add 2 μL/well 2× substrate/ATP solution to initiate kinase reactions. Centrifuge at 1000 rpm for 1 min. Incubate at room temperature for 180 min.
Final concentrations of components in the assay:
Step 4. Quench: Add 2 uL/well ADP Glo Reagent+0.05% CHAPS. Centrifuge at 1000 rpm for 1 min; Incubate at room temperature for one hour.
Step 5. Detection: Add 2 uL/well Kinase Detection Reagent+0.05% CHAPS. Centrifuge at 1000 rpm for 1 min; Incubate at room temperature for 1 hour; Read Luminescence on a plate reader.
% Inhibition: % Inhibition=(NC−sample)/(NC−PC)*100 where NC is the mean of negative control (reactions without inhibitor), and PC is the mean of positive control (1 μM TAK-593).
IC50 values are determined from a 4-parameter fit, using the following equation: Y=Bottom+(Top−Bottom)/(1+10^(Log IC50-X)*Hill Slope), where X=log10 of the compound concentration; top can be defined by PC; bottom defined by NC.

[3] = A10 cells, 3 hours compound, 15 ng/mL PDGFbb for 10 minutes, read-out: PDGFR Cellular IC50

Sequence of PDGFRβ (Q05030 whole entry, looked up): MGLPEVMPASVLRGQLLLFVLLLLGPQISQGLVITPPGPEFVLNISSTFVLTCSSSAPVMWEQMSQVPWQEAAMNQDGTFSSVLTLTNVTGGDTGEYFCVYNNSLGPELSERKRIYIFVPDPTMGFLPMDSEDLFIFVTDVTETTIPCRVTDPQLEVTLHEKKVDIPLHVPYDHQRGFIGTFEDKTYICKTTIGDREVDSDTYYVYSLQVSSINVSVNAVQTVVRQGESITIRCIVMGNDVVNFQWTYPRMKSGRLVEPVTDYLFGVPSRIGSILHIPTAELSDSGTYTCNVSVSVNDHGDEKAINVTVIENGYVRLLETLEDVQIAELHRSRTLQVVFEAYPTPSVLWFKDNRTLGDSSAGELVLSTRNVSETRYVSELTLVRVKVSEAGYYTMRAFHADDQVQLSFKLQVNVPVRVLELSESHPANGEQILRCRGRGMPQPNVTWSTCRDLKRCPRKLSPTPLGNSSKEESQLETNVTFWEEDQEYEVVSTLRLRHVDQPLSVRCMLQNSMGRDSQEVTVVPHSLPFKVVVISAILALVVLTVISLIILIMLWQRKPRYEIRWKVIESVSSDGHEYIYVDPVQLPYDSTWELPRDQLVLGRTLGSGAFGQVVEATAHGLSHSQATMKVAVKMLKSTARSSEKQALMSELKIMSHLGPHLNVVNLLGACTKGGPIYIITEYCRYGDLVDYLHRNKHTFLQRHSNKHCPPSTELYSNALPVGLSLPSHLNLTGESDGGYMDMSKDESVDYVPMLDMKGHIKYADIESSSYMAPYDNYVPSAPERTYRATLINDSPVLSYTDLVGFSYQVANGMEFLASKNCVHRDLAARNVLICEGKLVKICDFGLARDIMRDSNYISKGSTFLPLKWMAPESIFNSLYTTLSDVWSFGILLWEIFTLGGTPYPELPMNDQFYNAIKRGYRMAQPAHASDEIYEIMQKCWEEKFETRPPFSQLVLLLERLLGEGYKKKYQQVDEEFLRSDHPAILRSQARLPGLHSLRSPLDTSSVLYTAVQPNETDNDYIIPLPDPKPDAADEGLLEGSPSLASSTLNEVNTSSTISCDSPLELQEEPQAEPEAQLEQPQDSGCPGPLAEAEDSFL

Q: With `Cc1ncc(C(=O)NCCN(C)C2CCOCC2)cc1Nc1nn(C)c2nc(Nc3cnn(C)c3)ncc12` [Example 21, 6-methyl-N-(2-(methyl(tetrahydro-2H-pyran-4-yl)amino)ethyl)-5-((1-methyl-6-((1-methyl-1H-pyrazol-4-yl)amino)-1H-pyrazolo[3,4-d]pyrimidin-3-yl)amino)nicotinamide] as the molecule, how does the IC50 [1] read?
A: 66.3 nM

Q: What about the IC50 [2] of the same molecule?
A: > 7500 nM

Q: With `Cc1ncc(NC(=O)CN2CCC[C@@H]2C)cc1Nc1nn(C)c2nc(Nc3cnn(C)c3)ncc12` [Example 71, (S)—N-(6-methyl-5-((1-methyl-6-((1-methyl-1H-pyrazol-4-yl)amino)-1H-pyrazolo[3,4-d]pyrimidin-3-yl)amino)pyridin-3-yl)-2-(2-methylpyrrolidin-1-yl)acetamide] as the molecule, how does the IC50 [1, 3] read?
A: 1.7 nM

Q: Which IC50 [1] does the source give for `Cc1ncc(C(=O)NCCN2CCCC23COC3)cc1Nc1nn(C)c2nc(Nc3cnn(C)c3)ncc12` [Example 18, N-(2-(2-oxa-5-azaspiro[3.4]octan-5-yl)ethyl)-6-methyl-5-((1-methyl-6-((1-methyl-1H-pyrazol-4-yl)amino)-1H-pyrazolo[3,4-d]pyrimidin-3-yl)amino)nicotinamide] here?
A: 40.1 nM

Q: And the IC50 [2]?
A: > 7500 nM

Q: `COC(=O)C(C)(C)c1cccc(Nc2ncc3c(Nc4cc(C(=O)NCCN5CCCC5(C)C)cnc4C)nn(C)c3n2)c1` [Example 46] was tested. Which IC50 [1, 3] did it give?
A: 18.5 nM

Q: `Cc1ncc(C(=O)NCCN2CC[C@H](C)C2)cc1Nc1nn(C)c2nc(Nc3cncnc3)ncc12` [Example 12, (S)-6-methyl-5-((1-methyl-6-(pyrimidin-5-ylamino)-1H-pyrazolo[3,4-d]pyrimidin-3-yl)amino)-N-(2-(3-methylpyrrolidin-1-yl)ethyl)nicotinamide] was tested. Which IC50 [1] did it give?
A: 110 nM

Q: What about the IC50 [2] of the same molecule?
A: > 7500 nM

Q: What does the source list for `Cc1ncc(C(=O)NCCN2CCOC3(CC3)C2)cc1Nc1nn(C)c2nc(Nc3cnn(C)c3)ncc12` [Example 54, N-(2-(4-oxa-7-azaspiro[2.5]octan-7-yl)ethyl)-6-methyl-5-((1-methyl-6-((1-methyl-1H-pyrazol-4-yl)amino)-1H-pyrazolo[3,4-d]pyrimidin-3-yl)amino)nicotinamide]?
A: IC50 [1]: 36.3 nM; IC50 [2]: 4730 nM

Q: For `Cc1ncc(NC(=O)CN2CC(F)(F)C2)cc1Nc1nn(C)c2nc(Nc3cnn(C)c3)ncc12` [Example 76, 2-(3,3-difluoroazetidin-1-yl)-N-(6-methyl-5-((1-methyl-6-((1-methyl-1H-pyrazol-4-yl)amino)-1H-pyrazolo[3,4-d]pyrimidin-3-yl)amino)pyridin-3-yl)acetamide], which IC50 [1, 3] is on record?
A: 13.1 nM

Q: With `Cc1ncc(NC(=O)CN2CCC(F)(F)CC2)cc1Nc1nn(C)c2nc(Nc3cnn(C)c3)ncc12` [Example 72, 2-(4,4-difluoropiperidin-1-yl)-N-(6-methyl-5-((1-methyl-6-((1-methyl-1H-pyrazol-4-yl)amino)-1H-pyrazolo[3,4-d]pyrimidin-3-yl)amino)pyridin-3-yl)acetamide] as the molecule, how does the IC50 [1, 3] read?
A: 3.5 nM

Q: With `Cc1ncc(NC(=O)CN2C[C@@H](C)O[C@@H](C)C2)cc1Nc1nn(C)c2nc(Nc3cnn(C)c3)ncc12` [Example 78, 2-(cis-2,6-dimethylmorpholino)-N-(6-methyl-5-((1-methyl-6-((1-methyl-1H-pyrazol-4-yl)amino)-1H-pyrazolo[3,4-d]pyrimidin-3-yl)amino)pyridin-3-yl)acetamide] as the molecule, how does the IC50 [1, 3] read?
A: 8.3 nM

Q: How did the IC50 [1, 3] turn out when `Cc1ncc(NC(=O)CN2CCC3(CC3)C2)cc1Nc1nn(C)c2nc(Nc3cnn(C)c3)ncc12` [Example 74, N-(6-methyl-5-((1-methyl-6-((1-methyl-1H-pyrazol-4-yl)amino)-1H-pyrazolo[3,4-d]pyrimidin-3-yl)amino)pyridin-3-yl)-2-(5-azaspiro[2.4]heptan-5-yl)acetamide] was run?
A: 1.7 nM

Q: `COCCn1cc(Nc2ncc3c(Nc4cc(NC(=O)CN5CCC56CCC6)cnc4C)nn(C)c3n2)cn1` [Example 123, N-(5-((6-((1-(2-methoxyethyl)-1H-pyrazol-4-yl)amino)-1-methyl-1H-pyrazolo[3,4-d]pyrimidin-3-yl)amino)-6-methylpyridin-3-yl)-2-(1-azaspiro[3.3]heptan-1-yl)acetamide] was tested. Which IC50 [1, 3] did it give?
A: 4.7 nM

Q: Which IC50 [1, 3] does the source give for `COC(=O)Cc1cccc(Nc2ncc3c(Nc4cc(C(=O)NCCN5CCCC5(C)C)cnc4C)nn(C)c3n2)c1` [Example 43] here?
A: 24 nM

Q: For `Cc1ncc(NC(=O)CN2C[C@H](C)O[C@@H](C)C2)cc1Nc1nn(C)c2nc(Nc3cnn(C)c3)ncc12` (relative stereo) [Example 73, 2-(trans-2,6-dimethylmorpholino)-N-(6-methyl-5-((1-methyl-6-((1-methyl-1H-pyrazol-4-yl)amino)-1H-pyrazolo[3,4-d]pyrimidin-3-yl)amino)pyridin-3-yl)acetamide], which IC50 [1, 3] is on record?
A: 5.3 nM

Q: Which IC50 [1, 3] does the source give for `Cc1ncc(NC(=O)CN(CCO)C2CCCC2)cc1Nc1nn(C)c2nc(Nc3cnn(C)c3)ncc12` [Example 79, 2-(cyclopentyl(2-hydroxyethyl)amino)-N-(6-methyl-5-((1-methyl-6-((1-methyl-1H-pyrazol-4-yl)amino)-1H-pyrazolo[3,4-d]pyrimidin-3-yl)amino)pyridin-3-yl)acetamide] here?
A: 23.5 nM

Q: With `Cc1ncc(C(=O)NCCN2CCCC2(C)C)cc1Nc1nn(C)c2nc(Nc3ccn(C)n3)ncc12` [Example 34, N-(2-(2,2-dimethylpyrrolidin-1-yl)ethyl)-6-methyl-5-((1-methyl-6-((1-methyl-1H-pyrazol-3-yl)amino)-1H-pyrazolo[3,4-d]pyrimidin-3-yl)amino)nicotinamide] as the molecule, how does the IC50 [2] read?
A: > 7500 nM

Q: `Cc1ncc(C(=O)NCCN2CCCC2(C)C)cc1Nc1nn(C)c2nc(Nc3cnn(C)c3)ncc12` [Example 39, N-(2-(2,2-dimethylpyrrolidin-1-yl)ethyl)-6-methyl-5-((1-methyl-6-((1-methyl-1H-pyrazol-4-yl)amino)-1H-pyrazolo[3,4-d]pyrimidin-3-yl)amino)nicotinamide] was tested. Which IC50 [2] did it give?
A: > 7500 nM

Q: With `Cc1ncc(NC(=O)CN2CCC(F)(F)C2)cc1Nc1nn(C)c2nc(Nc3cnn(C)c3)ncc12` [Example 75, 2-(3,3-difluoropyrrolidin-1-yl)-N-(6-methyl-5-((1-methyl-6-((1-methyl-1H-pyrazol-4-yl)amino)-1H-pyrazolo[3,4-d]pyrimidin-3-yl)amino)pyridin-3-yl)acetamide] as the molecule, how does the IC50 [1, 3] read?
A: 4.9 nM

Q: With `Cc1ncc(NC(=O)CN(CCCO)C2CCCC2)cc1Nc1nn(C)c2nc(Nc3cnn(C)c3)ncc12` [Example 80, 2-(cyclopentyl(3-hydroxypropyl)amino)-N-(6-methyl-5-((1-methyl-6-((1-methyl-1H-pyrazol-4-yl)amino)-1H-pyrazolo[3,4-d]pyrimidin-3-yl)amino)pyridin-3-yl)acetamide] as the molecule, how does the IC50 [1, 3] read?
A: 16.6 nM
